Test results as given in article PMC3145970, “Specific CLK Inhibitors from a Novel Chemotype for Regulation of Alternative Splicing” (Chemistry & Biology, 2011).
Like-named read-outs stand apart in the source and are kept apart here.

Key:
Experiment in all cases: Thermal stability shift assay
Type in all cases: binding
AKT3 = AKT3 (Homo sapiens, UniProt Q9Y243); settings: read-out: Tm shift AKT3
Outline: (§1)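 2 μM protein + 10 μM inhibitor; 10 mM HEPES pH 7.5, 500 mM NaCl, SyproOrange 1:1000; melt in qPCR cycler, dye fluorescence monitored.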

CK2a1 = CK2a1 (Homo sapiens, UniProt P68400); settings: read-out: Tm shift CK2a1
Outline: as §1

CaMK2a = CaMK2a (Homo sapiens, UniProt Q9UQM7); settings: read-out: Tm shift CaMK2a
Outline: as §1

DRAK2 = target: T1, DRAK2 (Homo sapiens, UniProt O94768); settings: read-out: Tm shift DRAK2
T1 construct: purchased in-house (SGC Oxford thermal shift panel)
T1 sequence (O94768 1-372): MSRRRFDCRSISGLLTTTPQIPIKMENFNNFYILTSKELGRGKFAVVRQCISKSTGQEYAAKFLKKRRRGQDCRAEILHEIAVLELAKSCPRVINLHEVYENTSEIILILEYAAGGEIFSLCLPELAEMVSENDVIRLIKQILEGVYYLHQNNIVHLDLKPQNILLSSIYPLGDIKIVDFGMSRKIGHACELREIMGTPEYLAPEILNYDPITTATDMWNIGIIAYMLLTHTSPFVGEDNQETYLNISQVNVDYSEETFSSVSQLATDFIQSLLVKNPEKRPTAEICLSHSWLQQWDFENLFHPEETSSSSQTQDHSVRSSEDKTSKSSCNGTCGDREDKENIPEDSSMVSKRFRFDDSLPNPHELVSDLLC
Outline: as §1

FES = target: T2, FES (Homo sapiens, UniProt P07332); settings: read-out: Tm shift FES
T2 construct: purchased in-house (SGC Oxford thermal shift panel)
Outline: as §1

PRKX = target: T3, PRKX (Homo sapiens, UniProt P51817); settings: read-out: Tm shift PRKX
T3 sequence (P51817 1-358): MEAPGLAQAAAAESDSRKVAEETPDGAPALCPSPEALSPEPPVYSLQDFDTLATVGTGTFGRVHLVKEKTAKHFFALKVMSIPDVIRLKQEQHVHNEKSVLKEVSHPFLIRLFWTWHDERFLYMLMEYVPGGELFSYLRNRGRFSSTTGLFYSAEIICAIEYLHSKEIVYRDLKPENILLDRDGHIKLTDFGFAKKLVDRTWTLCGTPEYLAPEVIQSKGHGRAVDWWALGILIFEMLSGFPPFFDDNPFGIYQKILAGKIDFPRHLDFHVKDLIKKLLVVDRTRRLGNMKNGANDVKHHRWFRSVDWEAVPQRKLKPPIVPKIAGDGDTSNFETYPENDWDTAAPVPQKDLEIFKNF
Outline: as §1

SgK085 = target: T4, SgK085 (Homo sapiens, UniProt Q86YV6); settings: read-out: Tm shift SgK085
T4 sequence (Q86YV6 1-388): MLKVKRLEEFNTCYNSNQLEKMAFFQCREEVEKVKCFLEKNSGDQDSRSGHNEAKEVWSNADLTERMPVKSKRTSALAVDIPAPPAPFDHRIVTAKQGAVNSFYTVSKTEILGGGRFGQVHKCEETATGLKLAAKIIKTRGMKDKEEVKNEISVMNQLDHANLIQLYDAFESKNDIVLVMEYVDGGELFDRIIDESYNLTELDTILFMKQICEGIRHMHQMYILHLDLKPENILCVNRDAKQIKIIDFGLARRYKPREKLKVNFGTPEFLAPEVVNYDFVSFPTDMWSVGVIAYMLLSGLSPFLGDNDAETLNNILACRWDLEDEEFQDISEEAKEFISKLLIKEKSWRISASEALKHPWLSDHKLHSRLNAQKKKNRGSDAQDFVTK
Outline: as §1

TTK = target: T5, TTK (Homo sapiens, UniProt P33981); settings: read-out: Tm shift TTK
T5 sequence (P33981 1-857): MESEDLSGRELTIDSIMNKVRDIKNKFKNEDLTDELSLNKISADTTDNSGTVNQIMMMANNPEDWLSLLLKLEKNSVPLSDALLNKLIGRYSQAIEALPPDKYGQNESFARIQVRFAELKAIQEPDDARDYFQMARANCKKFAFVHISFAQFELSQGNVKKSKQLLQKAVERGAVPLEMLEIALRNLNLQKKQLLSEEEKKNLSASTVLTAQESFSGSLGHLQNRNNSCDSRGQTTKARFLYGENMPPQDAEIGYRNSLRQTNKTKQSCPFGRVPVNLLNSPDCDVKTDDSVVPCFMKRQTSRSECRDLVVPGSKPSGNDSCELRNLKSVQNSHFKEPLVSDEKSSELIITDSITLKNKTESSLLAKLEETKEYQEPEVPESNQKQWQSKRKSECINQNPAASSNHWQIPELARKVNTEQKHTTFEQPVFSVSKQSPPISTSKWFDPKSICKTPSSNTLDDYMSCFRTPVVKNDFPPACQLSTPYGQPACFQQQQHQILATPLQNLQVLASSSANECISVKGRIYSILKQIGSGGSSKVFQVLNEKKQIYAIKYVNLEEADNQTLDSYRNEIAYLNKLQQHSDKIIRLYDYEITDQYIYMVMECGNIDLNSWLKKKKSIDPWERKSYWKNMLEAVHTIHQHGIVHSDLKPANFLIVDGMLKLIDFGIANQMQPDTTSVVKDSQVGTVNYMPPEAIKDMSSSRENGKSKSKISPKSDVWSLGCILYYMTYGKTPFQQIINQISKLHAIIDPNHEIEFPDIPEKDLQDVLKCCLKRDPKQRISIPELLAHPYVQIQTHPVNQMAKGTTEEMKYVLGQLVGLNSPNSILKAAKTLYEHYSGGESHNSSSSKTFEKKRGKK
Outline: as §1

p38d = target: T6, p38d (Homo sapiens, UniProt O15264); settings: read-out: Tm shift p38d
T6 construct: purchased in-house (SGC Oxford thermal shift panel)
T6 sequence (O15264 1-365): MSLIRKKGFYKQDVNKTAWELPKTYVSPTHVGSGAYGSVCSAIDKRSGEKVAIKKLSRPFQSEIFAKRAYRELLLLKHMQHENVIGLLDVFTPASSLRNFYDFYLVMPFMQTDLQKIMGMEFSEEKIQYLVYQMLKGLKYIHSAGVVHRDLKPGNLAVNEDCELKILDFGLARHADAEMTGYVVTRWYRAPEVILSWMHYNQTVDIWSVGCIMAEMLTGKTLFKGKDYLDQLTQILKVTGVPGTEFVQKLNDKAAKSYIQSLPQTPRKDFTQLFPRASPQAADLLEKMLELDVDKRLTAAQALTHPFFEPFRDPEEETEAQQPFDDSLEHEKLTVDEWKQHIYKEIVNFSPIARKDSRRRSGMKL
Outline: as §1

CaMK2a, sequence (Q9UQM7 whole entry): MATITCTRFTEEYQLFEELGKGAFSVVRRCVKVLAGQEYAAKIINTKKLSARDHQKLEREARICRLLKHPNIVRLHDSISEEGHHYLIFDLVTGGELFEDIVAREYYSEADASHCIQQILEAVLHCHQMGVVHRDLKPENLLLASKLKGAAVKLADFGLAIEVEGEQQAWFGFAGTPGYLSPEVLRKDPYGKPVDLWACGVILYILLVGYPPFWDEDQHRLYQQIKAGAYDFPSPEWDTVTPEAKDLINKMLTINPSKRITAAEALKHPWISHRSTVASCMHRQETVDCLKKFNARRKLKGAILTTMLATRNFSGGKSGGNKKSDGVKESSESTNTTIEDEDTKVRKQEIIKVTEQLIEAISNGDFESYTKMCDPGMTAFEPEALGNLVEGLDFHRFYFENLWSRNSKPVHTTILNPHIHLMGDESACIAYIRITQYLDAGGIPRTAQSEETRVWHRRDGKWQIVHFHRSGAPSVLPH
T2 sequence (P07332 whole entry): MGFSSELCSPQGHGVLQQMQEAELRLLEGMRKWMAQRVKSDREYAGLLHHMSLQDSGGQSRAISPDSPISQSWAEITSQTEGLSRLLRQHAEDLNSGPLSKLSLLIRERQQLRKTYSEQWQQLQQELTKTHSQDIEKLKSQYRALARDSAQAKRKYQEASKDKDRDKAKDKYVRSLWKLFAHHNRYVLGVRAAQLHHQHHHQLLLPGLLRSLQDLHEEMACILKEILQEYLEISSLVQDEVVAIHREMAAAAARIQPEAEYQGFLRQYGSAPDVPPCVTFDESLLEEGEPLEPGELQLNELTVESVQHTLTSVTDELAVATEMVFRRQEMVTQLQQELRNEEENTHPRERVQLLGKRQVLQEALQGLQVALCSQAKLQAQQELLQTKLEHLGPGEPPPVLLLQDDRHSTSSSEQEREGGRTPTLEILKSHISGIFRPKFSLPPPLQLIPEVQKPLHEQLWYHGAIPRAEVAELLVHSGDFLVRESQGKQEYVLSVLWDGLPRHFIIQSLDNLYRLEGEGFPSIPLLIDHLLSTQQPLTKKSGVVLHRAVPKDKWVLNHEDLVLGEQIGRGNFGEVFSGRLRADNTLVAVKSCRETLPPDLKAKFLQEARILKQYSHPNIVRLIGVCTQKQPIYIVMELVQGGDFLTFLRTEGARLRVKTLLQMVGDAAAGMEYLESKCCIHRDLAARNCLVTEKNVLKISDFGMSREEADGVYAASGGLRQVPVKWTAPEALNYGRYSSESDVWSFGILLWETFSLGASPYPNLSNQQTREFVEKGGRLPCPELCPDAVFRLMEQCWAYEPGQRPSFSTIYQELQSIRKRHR
CK2a1, sequence (P68400 whole entry): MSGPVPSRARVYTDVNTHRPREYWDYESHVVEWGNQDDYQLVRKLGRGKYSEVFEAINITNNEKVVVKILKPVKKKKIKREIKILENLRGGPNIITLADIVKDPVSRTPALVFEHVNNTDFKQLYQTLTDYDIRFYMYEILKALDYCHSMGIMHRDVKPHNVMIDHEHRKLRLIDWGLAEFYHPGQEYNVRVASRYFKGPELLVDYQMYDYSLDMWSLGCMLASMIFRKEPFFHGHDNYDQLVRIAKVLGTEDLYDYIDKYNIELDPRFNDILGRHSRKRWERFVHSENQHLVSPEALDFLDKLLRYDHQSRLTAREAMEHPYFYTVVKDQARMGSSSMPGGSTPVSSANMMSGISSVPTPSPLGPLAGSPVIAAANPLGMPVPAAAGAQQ
AKT3, sequence (Q9Y243 whole entry): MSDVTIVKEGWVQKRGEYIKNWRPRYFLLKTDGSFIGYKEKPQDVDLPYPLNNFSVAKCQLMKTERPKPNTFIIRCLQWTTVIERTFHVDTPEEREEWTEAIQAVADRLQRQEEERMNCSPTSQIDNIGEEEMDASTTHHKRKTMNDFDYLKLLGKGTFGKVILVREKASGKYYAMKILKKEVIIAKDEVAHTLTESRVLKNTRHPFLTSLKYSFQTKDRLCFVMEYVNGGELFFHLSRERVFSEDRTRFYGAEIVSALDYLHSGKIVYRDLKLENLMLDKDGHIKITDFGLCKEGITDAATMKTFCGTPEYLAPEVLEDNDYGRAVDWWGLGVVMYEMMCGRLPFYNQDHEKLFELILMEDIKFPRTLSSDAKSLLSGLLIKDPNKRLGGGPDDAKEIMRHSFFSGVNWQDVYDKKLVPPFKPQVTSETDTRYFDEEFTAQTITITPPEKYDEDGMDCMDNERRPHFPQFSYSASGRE

| ΔTm at 10 µM (AKT3; inhibitor 10 μM) [°C] | ΔTm at 10 µM (CK2a1; inhibitor 10 μM) [°C] | ΔTm at 10 µM (CaMK2a; inhibitor 10 μM) [°C] | ΔTm at 10 µM (DRAK2; inhibitor 10 μM) [°C] | ΔTm at 10 µM (FES; inhibitor 10 μM) [°C] | ΔTm at 10 µM (PRKX; inhibitor 10 μM) [°C] | ΔTm at 10 µM (SgK085; inhibitor 10 μM) [°C] | ΔTm at 10 µM (TTK; inhibitor 10 μM) [°C] | ΔTm at 10 µM (p38d; inhibitor 10 μM) [°C] | SMILES | ΔTm at 10 µM (AKT3) [°C] | ΔTm at 10 µM (CK2a1) [°C] | ΔTm at 10 µM (CaMK2a) [°C] | ΔTm at 10 µM (DRAK2) [°C] | ΔTm at 10 µM (FES) [°C] | ΔTm at 10 µM (PRKX) [°C] | ΔTm at 10 µM (SgK085) [°C] | ΔTm at 10 µM (TTK) [°C] | ΔTm at 10 µM (p38d) [°C] |
| --- | --- | --- | --- | --- | --- | --- | --- | --- | --- | --- | --- | --- | --- | --- | --- | --- | --- | --- |
| -0.2 | 1.4 | 1 | 0 | 0 | 0.3 | 0.4 | -0.1 | 0.4 | CCOC(=O)c1c(C(C#N)=CN(C)C)c2ccc(Cl)c(Cl)c2n1C (mixture of isomers) [compound 2, (E/Z)-Ethyl 6,7-Dichloro-3-[1-Cyano-2-(Dimethylamino)Vinyl]-1-Methyl-1H-Indole-2-Carboxylate] | – | – | – | – | – | – | – | – | – |
| – | – | – | – | – | – | – | – | – | CCOC(=O)c1c(/C(C#N)=C\N)c2ccc(Cl)c(Cl)c2n1C [KH-CB19, (E)-Ethyl 3-(2-Amino-1-Cyanovinyl)-6,7-Dichloro-1-Methyl-1H-Indole-2-Carboxylate] | -0.2 | 1.3 | 0.5 | 1.7 | -0.3 | 0.5 | 4.1 | 0.5 | 0.3 |
| – | – | – | – | – | – | – | – | – | CCOC(=O)c1c(C(C#N)=CN)c2ccc(Cl)c(Cl)c2n1C (mixture of isomers) [KH-CB20, (E/Z)-Ethyl 3-(2-Amino-1-Cyanovinyl)-6,7-Dichloro-1-Methyl-1H-Indole-2-Carboxylate] | -0.3 | 1.1 | 0.7 | 1.5 | -0.3 | 0.4 | 4.5 | 0.3 | -0.3 |
| 0.1 | 1.3 | 0.5 | 0.9 | 0 | 0.5 | 2.9 | 1.8 | 0.3 | Cn1c2c(Cl)c(Cl)ccc2c2c(C#N)c[nH]c(=O)c21 [compound 3, 7,8-Dichloro-9-Methyl-1-Oxo-2,9-Dihydro-1H-Pyrido[3,4-b]Indole-4-Carbonitrile] | – | – | – | – | – | – | – | – | – |

| SMILES | ΔTm at 10 µM (AKT3; inhibitor 10 μM) [°C] | ΔTm at 10 µM (CK2a1; inhibitor 10 μM) [°C] | ΔTm at 10 µM (CaMK2a; inhibitor 10 μM) [°C] | ΔTm at 10 µM (DRAK2; inhibitor 10 μM) [°C] | ΔTm at 10 µM (FES; inhibitor 10 μM) [°C] | ΔTm at 10 µM (PRKX; inhibitor 10 μM) [°C] | ΔTm at 10 µM (SgK085; inhibitor 10 μM) [°C] | ΔTm at 10 µM (TTK; inhibitor 10 μM) [°C] | ΔTm at 10 µM (p38d; inhibitor 10 μM) [°C] | ΔTm at 10 µM (AKT3) [°C] | ΔTm at 10 µM (CK2a1) [°C] | ΔTm at 10 µM (CaMK2a) [°C] | ΔTm at 10 µM (DRAK2) [°C] | ΔTm at 10 µM (FES) [°C] | ΔTm at 10 µM (PRKX) [°C] | ΔTm at 10 µM (SgK085) [°C] | ΔTm at 10 µM (TTK) [°C] | ΔTm at 10 µM (p38d) [°C] |
| --- | --- | --- | --- | --- | --- | --- | --- | --- | --- | --- | --- | --- | --- | --- | --- | --- | --- | --- |
| NC1=NC(=O)/C(=C2\CCNC(=O)c3[nH]c(Br)cc32)N1 [Hymenialdisine, hymenialdisine, reference compound] | 1.3 | 0.8 | 0.4 | 13 | 0.7 | 0.3 | 2.7 | 0.7 | -0.1 | – | – | – | – | – | – | – | – | – |
